According to publication PMC7076710, “Synthesis, Identification, and Structure–Activity Relationship Analysis of GATA4 and NKX2-5 Protein–Protein Interaction Modulators” (Journal of Medicinal Chemistry, 2019):
Each block holds one compound with its values, some of them ahead of it.

Biological target: T1, GATA4–NKX2-5 transcriptional synergy (Mus musculus, UniProt P42582+Q08369)
T1 construct: expressed in transfected cells; host or cells: COS-1
Experiment: GATA4–NKX2-5 transcriptional synergy luciferase reporter assay (3xNKE reporter, COS-1 cells)
Assay type: cell-based
Method: To screen compounds for the GATA4–NKX2-5 interaction, we have developed a luciferase reporter assay based on their property to activate gene transcription synergistically through the NKX2-5 binding site on DNA.[28] In this assay, we transfected mammalian COS-1 cells with protein expression vectors for GATA4 and NKX2-5 proteins together with artificial luciferase reporter vector containing three high affinity binding sites for NKX2-5 (NKE). […] All 257 compounds were tested in two concentrations, 3 and 10 μM. Compounds either inhibited, enhanced, or had no effect on the GATA4–NKX2-5 transcriptional synergy. To investigate the selectivity of the active compounds, we tested their effects on NKX2-5 transcriptional activity by using the same luciferase reporter vector as in transcriptional synergy assay with three NKE sites (Figure 3B). Furthermore, we used GATA luciferase reporter assay to examine if compounds have an effect on GATA4 transcriptional activity. In this assay, we cotransfected the cells with a GATA4 protein expression vector and a reporter vector with tandem GATA4 binding sites (Figure 3C). Previously we have reported that compound 1 inhibited the GATA4–NKX2-5 transcriptional synergy at micromolar concentrations (IC50 = 3 μM).[29]
The plasmids expressing mouse GATA4 protein, pMT2-GATA4, and empty pMT2 were gifts from D. B. Wilson (Department of Pediatrics, St. Louis Children’s Hospital, St. Louis, MO).[44] The plasmids expressing mouse NKX2-5 protein, pMT2-NKX2-5, have been described earlier.[28] The luciferase reporter plasmid used in GATA4–NKX2-5 transcriptional synergy assay and NKX transcriptional assay, pGL3-3xHA, contains three high affinity binding sites for NKX2-5.[28] The luciferase reporter plasmid used in GATA transcriptional assay, NP-112, contains tandem GATA-sites and minimal promoter of rat brain natriuretic peptide (BNP) gene.[45] The pGL3-BNP luciferase reporter containing −534/+4 bp rat BNP proximal promoter described previously was used in hypertrophy assay.[46]
The primary screening assay of compounds’ effect on GATA4–NKX2-5 transcriptional synergy and COS-1 cell culturing has been described earlier.[33] […] (Kinnunen et al., unpublished observation). Briefly, COS-1 cells were seeded at 14 000 cells/well in Isoplate-96 microplates (PerkinElmer, Turku, Finland) and grown overnight. The cells were transfected with the luciferase reporter plasmid pGL3-3xHA 100 ng/well and equal amounts of expression plasmids pMT2-GATA4 and pMT2-NKX2-5 total 50 ng/well. To verify the synergistic effect, the cells were transfected with pMT2-GATA4 or pMT2-NKX2-5 25 ng/well, and the total DNA concentration was adjusted to 50 ng/well with empty pMT2 plasmid. In NKX2-5 and GATA4 luciferase reporter assays, the cells were transfected with reporter plasmid pGL3-3xHA or NP-112 (100 ng/well) and expression plasmid pMT2-NKX2-5 or pMT2-GATA4 (25 ng/well). The ratio of DNA/transfection reagent (Fugene 6, Promega) was 1:3 in all assays. The transfections were performed in serum and antibiotics free media for 6 h. The cells were treated with compounds or vehicle (0.1% DMSO) for 24 h, and the luminescence was measured using neolite Reporter Gene Assay System (PerkinElmer, Turku, Finland) and Victor2 plate reader (PerkinElmer, Turku, Finland).
Raw luciferase data were analyzed in Excel, and clear outliers were removed from triplicates by using the Grubb’s test. Data analysis was performed using R.[49] The luciferase data were first normalized on the basis of the combined mean value of controls. For data visualization and creation of figures, the following R packages were used: ggplot2, cowplot, RColorBrewer, and pheatmap. The heatmaps of the toxicity data were produced with GraphPad Prism 7.00 (GraphPad Software, La Jolla, CA). Statistical significance of luciferase reporter assay data was evaluated by randomized block analysis of variance followed by Dunnett’s post hoc test. […]

[1] = 3 µM compound, GATA4–NKX2-5 transcriptional synergy reporter, COS-1 cells
[2] = 10 µM compound, GATA4–NKX2-5 transcriptional synergy reporter, COS-1 cells
[3] = COS-1, compound 3 µM, luciferase reporter activity, spread in separate STDEV column
[4] = COS-1, compound at 3 µM, luciferase reporter activity, % of control
[5] = COS-1, compound at 10 µM, luciferase reporter activity, % of control
[6] = COS-1, 3 µM, luciferase reporter activity, % of control
[7] = COS-1, 10 µM, luciferase reporter activity, % of control
[8] = COS-1, compound 3 µM, luciferase reporter activity relative to control
[9] = COS-1, compound 10 µM, luciferase reporter activity, spread in separate STDEV column

T1 sequence (Q08369 whole entry): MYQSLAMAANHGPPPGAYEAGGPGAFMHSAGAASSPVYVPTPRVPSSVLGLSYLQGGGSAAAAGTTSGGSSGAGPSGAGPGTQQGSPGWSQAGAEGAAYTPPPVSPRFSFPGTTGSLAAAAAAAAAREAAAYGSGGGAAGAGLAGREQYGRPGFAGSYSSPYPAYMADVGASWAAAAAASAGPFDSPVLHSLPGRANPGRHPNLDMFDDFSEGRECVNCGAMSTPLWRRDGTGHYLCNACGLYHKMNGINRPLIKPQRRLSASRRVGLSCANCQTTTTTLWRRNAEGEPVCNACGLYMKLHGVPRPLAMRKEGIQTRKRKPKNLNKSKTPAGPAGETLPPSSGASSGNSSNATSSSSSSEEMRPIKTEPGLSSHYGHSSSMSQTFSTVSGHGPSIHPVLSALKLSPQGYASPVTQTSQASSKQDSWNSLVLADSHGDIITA
T1 sequence (P42582 whole entry): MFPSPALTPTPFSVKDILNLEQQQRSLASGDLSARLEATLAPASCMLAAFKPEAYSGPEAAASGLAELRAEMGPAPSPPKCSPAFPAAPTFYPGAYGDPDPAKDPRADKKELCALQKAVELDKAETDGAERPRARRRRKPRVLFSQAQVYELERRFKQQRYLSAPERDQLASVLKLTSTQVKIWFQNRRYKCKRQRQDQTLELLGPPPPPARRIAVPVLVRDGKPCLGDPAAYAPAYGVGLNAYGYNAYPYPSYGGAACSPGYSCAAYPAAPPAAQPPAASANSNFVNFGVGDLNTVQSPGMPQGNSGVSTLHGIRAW

activity at 3 µM [1]: 115% | activity at 10 µM [2]: 114%
SMILES: CCN(CC)c1ccc(NC(=O)c2c(-c3ccc(-c4ccc(F)cc4)cc3)noc2C)cc1 [Compound 39j]

activity at 3 µM [3]: 91%
SMILES: CCN(CC)c1ccc(NC(=O)c2c(-c3cc(Br)cs3)noc2C)cc1 [Compound 39l]

activity at 3 µM [4]: 95% | activity at 10 µM [5]: 101%
SMILES: Cc1onc(-c2cccc([N+](=O)[O-])c2)c1C(=O)Nc1ccc(N(C)C)cc1 [Compound 40]

activity at 3 µM [6]: 90.7% | activity at 10 µM [7]: 112%
SMILES: CCN(CC)c1ccc(NC(=O)c2ncoc2-c2ccccc2)cc1 [Compound 47a]

activity at 3 µM [1]: 88.3%
SMILES: CCN(CC)c1ccc(NC(=O)c2ccnc(C(F)(F)F)c2)cc1 [Compound 47ac]

activity at 3 µM [6]: 97.7% | activity at 10 µM [7]: 101%
SMILES: CCN(CC)c1ccc(NC(=O)c2nn(-c3ccccc3)nc2C)cc1 [Compound 47b]

activity at 3 µM [8]: 81.1%
SMILES: CCN(CC)c1ccc(NC(=O)c2cnn(C)c2-c2ccccc2)cc1 [Compound 47e]

activity at 3 µM [1]: 102%
SMILES: CCN(CC)c1ccc(NC(=O)c2c[nH]nc2-n2cnnn2)cc1 [Compound 47g, N-[4-(Diethylamino)phenyl]-3-(1H-tetrazol-1-yl)-1H-pyrazole-4-carboxamide]

activity at 3 µM [1]: 89% | activity at 10 µM [2]: 103%
SMILES: CCN(CC)c1ccc(NC(=O)c2ccoc2CCc2cccs2)cc1 [Compound 47i]

activity at 3 µM [8]: 113%
SMILES: CCN(CC)c1ccc(NC(=O)c2c(-c3ccccc3)nnc3ccccc23)cc1 [Compound 47j]

activity at 3 µM [8]: 73.2%
SMILES: CCN(CC)c1ccc(NC(=O)c2c(-c3ccccc3)nnn2CCOC)cc1 [Compound 47k]

activity at 3 µM [8]: 113%
SMILES: CCN(CC)c1ccc(NC(=O)c2c(-c3ccccc3)nnn2C)cc1 [Compound 47o]

activity at 3 µM [8]: 86.8%
SMILES: CCN(CC)c1ccc(NC(=O)c2nnn(C)c2-c2ccccc2)cc1 [Compound 47p]

activity at 3 µM [1]: 94.5%
SMILES: CCN(CC)c1ccc(NC(=O)c2c(C(F)(F)F)nn(C)c2Oc2ccccc2)cc1 [Compound 47q]

activity at 3 µM [6]: 114% | activity at 10 µM [7]: 145%
SMILES: CCN(CC)c1ccc(NC(=O)c2cnoc2C2CC2)cc1 [Compound 47r]

activity at 3 µM [1]: 95.9% | activity at 10 µM [2]: 132%
SMILES: CCN(CC)c1ccc(NC(=O)c2csc3nnsc23)cc1 [Compound 47v]

activity at 3 µM [1]: 115% | activity at 10 µM [2]: 112%
SMILES: CCN(CC)c1ccc(NC(=O)c2c(SC)nsc2SC)cc1 [Compound 47w]

activity at 3 µM [3]: 116% | activity at 10 µM [9]: 116%
SMILES: CCN(CC)c1ccc(NC(=O)c2ncoc2-c2ccco2)cc1 [Compound 47x]

activity at 3 µM [6]: 74.9% | activity at 10 µM [7]: 54.1%
SMILES: CCN(CC)c1ccc(/N=C/c2onc(-c3ccccc3)c2C(=O)Nc2ccc(N(CC)CC)cc2)cc1 [Compound 48]

activity at 3 µM [4]: 81.3% | activity at 10 µM [5]: 93.5%
SMILES: CCN(CC)c1ccc(/N=C/c2onc(-c3ccccc3)c2C(=O)OC)cc1 [Compound 51]

activity at 10 µM [7]: 108%
SMILES: CCN(CC)c1ccc(NC(=O)c2ccsc2)cc1 [Compound 55]

activity at 3 µM [3]: 112% | activity at 10 µM [9]: 115%
SMILES: CCN(CC)c1ccc(NC(=O)C2CCCC2)cc1 [Compound 57]

activity at 3 µM (COS-1, GATA4-NKX2-5 transcriptional synergy luciferase reporter assay, compound at 3 µM): 90.9% | activity at 10 µM (COS-1, GATA4-NKX2-5 transcriptional synergy luciferase reporter assay, compound at 10 µM): 104%
SMILES: CCN(CC)c1ccc(NC(=O)c2c(-c3ccccn3)noc2C)cc1 [Compound 59]

activity at 3 µM [1]: 31%
SMILES: CCN(c1ccc(NC(=O)c2c(C)noc2-c2snnc2C)cc1)C(C)C [Compound 62]

activity at 3 µM [4]: 90.6% | activity at 10 µM [5]: 124%
SMILES: Cc1onc(-c2ccccc2)c1NC(=O)c1ccc(N2CCN(C)CC2)cc1 [Compound 67]

activity at 3 µM [3]: 117% | activity at 10 µM [9]: 127%
SMILES: Cc1onc(-c2ccccc2)c1C(=O)N(C)c1ccc(C(=O)O)cc1 [Compound 68]

activity at 3 µM [3]: 127% | activity at 10 µM [9]: 138%
SMILES: CCC(C)NC(=O)c1cc(-c2ccco2)on1 (centres unmarked) [Compound 69]

activity at 3 µM [3]: 115%
SMILES: CC(=O)c1ccc(NC(=O)c2cc(-c3ccco3)on2)cc1 [Compound 70]

activity at 3 µM [3]: 115% | activity at 10 µM [9]: 104%
SMILES: CCSCCOC(=O)c1ccc(NC(=O)c2c(-c3ccccc3)noc2C)cc1 [SI1]

activity at 3 µM [3]: 99.4% | activity at 10 µM [9]: 82.7%
SMILES: Cc1onc(-c2ccccc2)c1C(=O)Nc1ccc(C(=O)OCc2ccco2)cc1 [SI2]

activity at 3 µM [3]: 85.8% | activity at 10 µM [9]: 98.5%
SMILES: CC(=O)COC(=O)c1ccc(NC(=O)c2c(-c3ccccc3)noc2C)cc1 [SI3]

activity at 3 µM [6]: 105% | activity at 10 µM [7]: 89.1%
SMILES: Cc1onc(-c2ccccc2)c1C(=O)Nc1ccc(Nc2ccccc2)cc1 [SI5]

activity at 3 µM [6]: 114% | activity at 10 µM [7]: 87.2%
SMILES: CCN(C(=O)c1c(-c2ccccc2)noc1C)c1ccc(Nc2ccccc2)cc1 [SI6]

activity at 3 µM [6]: 97.9% | activity at 10 µM [7]: 79%
SMILES: CCCCOc1ccc(NC(=O)c2c(-c3ccccc3)noc2C)cn1 [SI7]

activity at 3 µM [4]: 83.5% | activity at 10 µM [5]: 78%
SMILES: Cc1onc(-c2ccccc2)c1C(=O)Nc1nc2ccccc2n1C [SI9]

activity at 3 µM [4]: 116% | activity at 10 µM [5]: 78.3%
SMILES: Cc1cc(NC(=O)c2c(-c3ccccc3)noc2C)ncc1[N+](=O)[O-] [SI10]

activity at 3 µM [4]: 80.1% | activity at 10 µM [5]: 98.5%
SMILES: Cc1onc(-c2ccccc2)c1C(=O)Nc1ccc(C(=O)Nc2ccccc2)cc1 [SI11]

activity at 3 µM [4]: 108% | activity at 10 µM [5]: 99.5%
SMILES: Cc1onc(-c2ccccc2)c1C(=O)Nc1cnc2ccccc2c1 [SI12]

activity at 3 µM [3]: 89.2% | activity at 10 µM [9]: 71.6%
SMILES: Cc1onc(-c2ccccc2)c1C(=O)Nc1ccc(OCC(F)(F)F)c(Cl)c1 [SI13]

activity at 3 µM [3]: 107% | activity at 10 µM [9]: 98.2%
SMILES: Cc1onc(-c2ccccc2)c1C(=O)Nc1ccc2c(c1)C(=O)CCC2 [SI14]

activity at 3 µM [4]: 92.6% | activity at 10 µM [5]: 96%
SMILES: Cc1onc(-c2ccccc2)c1C(=O)Nc1ccc2c(c1)nc(C)n2C(C)C [SI15]

activity at 3 µM [6]: 99.5% | activity at 10 µM [7]: 91.3%
SMILES: Cc1onc(-c2ccccc2)c1C(=O)N1CCc2cc([N+](=O)[O-])ccc21 [SI16]

activity at 3 µM [6]: 99.2% | activity at 10 µM [7]: 87.1%
SMILES: Cc1onc(-c2ccccc2)c1NC(=O)OC(C)(C)C [SI17]

activity at 3 µM [1]: 102% | activity at 10 µM [2]: 92.8%
SMILES: CCN(CC)c1ccc(NCc2c(-c3c(Cl)cccc3Cl)noc2C)cc1 [SI18]

activity at 3 µM [6]: 91.6% | activity at 10 µM [7]: 79.1%
SMILES: CCN(CC)c1ccc(NS(=O)(=O)c2c(C)noc2C)cc1 [SI19]

activity at 3 µM [6]: 82.6% | activity at 10 µM [7]: 101%
SMILES: CCN(CC)c1ccc(/N=N/c2c(C)noc2C)cc1 [SI20]

activity at 3 µM [6]: 113% | activity at 10 µM [7]: 97.4%
SMILES: CCN(CC)c1ccc(C(=O)Nc2c(C)noc2C)cc1 [SI21]

activity at 3 µM [6]: 80.4% | activity at 10 µM [7]: 114%
SMILES: CCN(CC)c1ccc(C(=O)On2nnc3ccccc32)cc1 [SI22]

activity at 3 µM [4]: 109% | activity at 10 µM [5]: 68.7%
SMILES: Cc1onc(-c2ccccc2)c1NC(=O)Nc1ccc(OC(F)(F)F)cc1 [SI23]

activity at 3 µM [6]: 109% | activity at 10 µM [7]: 86.5%
SMILES: Cc1onc(-c2ccccc2)c1NC(=O)Nc1cccc(C(F)(F)F)c1 [SI24]

activity at 3 µM [4]: 91.2% | activity at 10 µM [5]: 118%
SMILES: Cc1onc(-c2ccccc2)c1NC(=O)NC1CCCCC1 [SI25]

activity at 3 µM [6]: 94.9% | activity at 10 µM [7]: 72.7%
SMILES: Cc1onc(-c2ccccc2)c1NC(=O)Nc1ccc(C(=O)c2ccccc2)cc1 [SI26]
